EP1509285B1, “SYNERGISTIC COMPOSITION OF TRANS-TETRACOS-15-ENOIC ACID AND APOCYNIN AND USE THEREOF” (COUNCIL OF SCIENTIFIC AND INDUSTRIAL RESEARCH, priority 2002, dated 2003)

Tests used:
[1] = system: D-Galactosamine (GAIN) induced hepatic injury; assay: Hepatoprotective activity (in vivo) against D-Galactosamine induced hepatic injury; details: rats; for Hepatic parameters Glutathione / Hepatic parameters Lipid peroxidation / Serum parameters ALP / Serum parameters Bilirubin / Serum parameters Triglycerides / Serum parameters GOT / Serum parameters GPT: 50 mg kg-1 p.o. at 48 h, 24h, 2 h before and 6 h after GalN 300 mg kg-1 s.c., mean ± S.E.; for Serum parameters GOT / Serum parameters GPT: unit is µmole pyruvate/min/L; for hepatoprotective activity percent, ALP / hepatoprotective activity percent, Bilirubin / hepatoprotective activity percent, GOT / hepatoprotective activity percent, GPT / hepatoprotective activity percent, Glutathione / hepatoprotective activity percent, Lipid peroxidation / hepatoprotective activity percent, Triglycerides: GalN, 50 mg kg-1 p.o., H = [1-(TC-V/VC-V)] × 100
Description: (§1) i. Animals: The pharmacological studies are conducted on Wistar albino rats (150-180g) and Swiss albino mice (25-30g) of either sex, colony - bred in the Institute's animal house. After procurement, all the animals are divided into different groups and are left for one week for acclimatization to experimentation room and are maintained on standard conditions (23±2°C, 60-70 % relative humidity and 12 h photo period). The animals are fed with standard rodents pellet diet and water ad libitum. There are six animals in each group except for general behaviour and acute toxicity studies where ten animals are used in each group.
D-Galactosamine: It is one of the toxins that induce hepatic inflammatory conditions in the rat liver that clinically resembles to viral hepatitis. The mechanism of GalN induced liver injury has been extensively examined and this model is now accepted as one of the authentic systems of liver damage (Bauer et. al., 1974, Al-Tuwaijiri et. al., 1981). (Table1)
Hepatic damage is produced by injecting GalN (300 mg.kg^-1) subcutaneously in normal saline. The control animals received the equal volume of vehicle.
(§2) Freshly prepared suspension (1%, w/v) in 0.2% gum acacia in normal saline is used for all the experiments except for toxicity studies where (10 %, w/v) suspension is used. Silymarin suspension (1%, w/v) in 0.2 % gum acacia is used as a reference standard (positive control).
Blood is collected from orbital sinus in all the animals 18 h after last treatment and serum separated for different estimations. All the animals are then killed by decapitation, their livers are quickly excised, cleaned of adhering tissue, weighed and homogenised in phosphate buffer saline for the analysis of hepatic parameters. A portion of the liver is processed for histopathological studies (Table 1)
(§3) • GPT and GOT: Pyruvate formed by transamination reaction is determined spectrophotometrically after reaction with 2,4-dinitrophenylhydrazine (Reitman and Frankel, 1957). • ALP : p-nitrophenol formed in alkaline medium is measured spectrophotometrically using p-nitrophenyl phosphate as substrate (Walter and Schutt, 1974). • Bilirubin : Total bilirubin is measured by diazotization reaction with NaNO2 (Malloy and Evelyn, 1937) • Triglycerides : Triglycerides from serum are extracted with isopropanol and sopanified with KOH. The liberated glycerol is converted to formaldehyde by periodate and determined after reaction with acetyl acetone. Triolein is used as standard (Neri and Firings, 1973). • Glutathione: It is determined after deproteination by reaction with DTNB (Ellman 1959 as modified by David 1987). • Lipid peroxidation: Thiobarbituric acid reacting substances are determined spectrophotometrically at 535 nm. Buege. and Aust. (1978).
(§4) Hepatoprotective activity (H) is calculated by the following equation: H = [1-(TC-V/VC-V)] × 100 [formula]
(§5) Where TC, VC, and V are drug + toxin, vehicle + toxin and vehicle treated groups of animals respectively.

[2] = system: 'Acetaminophen' (APAP) induced hepatotoxicity; assay: Hepatoprotective activity (in vivo) against acetaminophen (paracetamol) induced hepatotoxicity after diethyl-ether inhalation; details: mice; for Serum parameters GOT / Serum parameters GPT: unit is µmole pyruvate/min/L; for hepatoprotective activity percent, ALP / hepatoprotective activity percent, Bilirubin / hepatoprotective activity percent, GOT / hepatoprotective activity percent, GPT / hepatoprotective activity percent, Glutathione / hepatoprotective activity percent, Lipid peroxidation / hepatoprotective activity percent, Triglycerides: APAP, 50 mg kg-1 p.o., H = [1-(TC-V/VC-V)] × 100
Description: as §1
Paracetamol (APAP, acetaminophen): It is a therapeutic agent widely used as analgesic/antipyretic drug. When taken in large doses it causes hepatic necrosis which leads to biochemical changes having clinical features similar to those of acute viral hepatitis. The similar effect is observed in animals. The toxic effect can be potentiated if it is given several hours after the anesthetic ether inhalation (Wells et. al., 1986).
Liver injury is induced by injecting paracetamol (200 mg.kg^-1) interaperitoneally in normal saline (pH 9.4) six hour after inhalation of anesthetic ether (4ml/4min/6animals) in a closed chamber. The control animals received the equal volume of vehicle. (Table 2)
as §2
The doses of TCA and APO individually and in mixture, silymarin (50 mg/kg, p.o. each) and vehicle (normal saline) are fed to different groups of mice at 72 hours, 48 hours and 24 hours, 1 hour before diethyl ether inhalation and 1hour after hepatotoxin (paracetamol, 200 mg.kg^-1, i.p.) given 6 hours after exposure to diethyl- ether. Blood is collected from orbital sinus in all the animals 18 hours after last treatment and serum separated for different estimations. A portion of the liver is processed for histopathological studies. (Table 2)
as §3, §4, §5

[3] = system: bile flow and bile solids; assay: Choleretic activity: bile flow and bile solids after bile duct cannulation in normal anaesthetised rats; type: in vivo; details: 50 mg kg-1 i.d., bile collected 0-5 hours, mean ±SE
Source text: The liver, by producing bile, plays an important role in digestion. The presence of bile in the intestine is necessary to accomplish the digestion and absorption of fats as well as absorption of the fat-soluble vitamins- A, D, E & K. Bile is also an important vehicle of excretion. It removes many drugs, toxins, bile pigments and various inorganic substances either derived from the diet or synthesized by the body as cholesterol or as cholic acid.
Effect on the liver bile flow of test drug and that of vehicle is carried out after cannulating the bile duct in normal anaesthesied rats. Bile collected is from each animal from 0-5 hours (Klaassen, 1969, Donal et al.1953). (Table 5)

[4] = 50 mg kg-1 p.o. at 72 h, 48 h, 24 h, 1h before diethyl-ether and 1 h after APAP 200 mg kg-1 i.p., mean ± S.E.

COc1cc(C(C)=O)ccc1O [APO, Apocynin]
Hepatic parameters Glutathione [1]: 4.52±0.49 µ mole GSH/g liver
Hepatic parameters Lipid peroxidation [1]: 48.71±3.69 n moles MDA/g liver
Serum parameters ALP [1]: 37.73±1.64 µ mole of p-nitrophenol formed/min/ L
Serum parameters Bilirubin [1]: 0.41±0.02 mg %
Serum parameters Triglycerides [1]: 31.85±3.74 mg %
Serum parameters GOT [1]: 509.33±41.63 Units
Serum parameters GPT [1]: 859.18±50.51 Units
hepatoprotective activity percent, ALP [1]: (68.76) percent
hepatoprotective activity percent, Bilirubin [1]: (41.66) percent
hepatoprotective activity percent, GOT [1]: (38.42) percent
hepatoprotective activity percent, GPT [1]: (46.59) percent
hepatoprotective activity percent, Glutathione [1]: (21.51) percent
hepatoprotective activity percent, Lipid peroxidation [1]: (39.93) percent
hepatoprotective activity percent, Triglycerides [1]: (42.95) percent
Hepatic parameters Glutathione [2, 4]: 4.60±0.42 µ mole GSH/g liver
Hepatic parameters Lipid peroxidation [2, 4]: 48.32±2.13 n moles MDA/g liver
Serum parameters ALP [2, 4]: 29.71±1.89 µ mole of p-nitroplenol formed/min/ L
Serum parameters Bilirubin [2, 4]: 0.43±0.01 mg %
Serum parameters Triglycerides [2, 4]: 30.50±1.36 mg %
Serum parameters GOT [2, 4]: 755.04±112.04 Units
Serum parameters GPT [2, 4]: 1334.72±98.34 Units
hepatoprotective activity percent, ALP [2]: (67.91) percent
hepatoprotective activity percent, Bilirubin [2]: (42.59) percent
hepatoprotective activity percent, GOT [2]: (36.07) percent
hepatoprotective activity percent, GPT [2]: (42.27) percent
hepatoprotective activity percent, Glutathione [2]: (42.60) percent
hepatoprotective activity percent, Lipid peroxidation [2]: (38.34) percent
hepatoprotective activity percent, Triglycerides [2]: (36.68) percent
Bile parameters % Increase (as compared to normal) Bile flow [3]: 27.39±2.05 ml%
Bile parameters % Increase (as compared to normal) Bile solids [3]: 24.05±2.76 mg%

CCCCCCCC/C=C/CCCCCCCCCCCCCC(=O)O [TCA, trans-tetracos-15-enoic acid]
Hepatic parameters Glutathione [1]: 5.39±0.43 µ mole GSH/g liver
Hepatic parameters Lipid peroxidation [1]: 42.12±3.93 n moles MDA/g liver
Serum parameters ALP [1]: 44.16±2.87 µ mole of p-nitrophenol formed/min/ L
Serum parameters Bilirubin [1]: 0.29±0.03 mg %
Serum parameters Triglycerides [1]: 29.78±2.82 mg %
Serum parameters GOT [1]: 421.64±30.36 Units
Serum parameters GPT [1]: 758.59±40.86 Units
hepatoprotective activity percent, ALP [1]: (59.67) percent
hepatoprotective activity percent, Bilirubin [1]: (66.66) percent
hepatoprotective activity percent, GOT [1]: (52.03) percent
hepatoprotective activity percent, GPT [1]: (53.74) percent
hepatoprotective activity percent, Glutathione [1]: (38.84) percent
hepatoprotective activity percent, Lipid peroxidation [1]: (59.35) percent
hepatoprotective activity percent, Triglycerides [1]: (50.99) percent
Hepatic parameters Glutathione [2, 4]: 4.59±0.45 µ mole GSH/g liver
Serum parameters ALP [2, 4]: 34.95±1.89 µ mole of p-nitroplenol formed/min/ L
Serum parameters Bilirubin [2, 4]: 0.355±0.01 mg %
Serum parameters Triglycerides [2, 4]: 23.53±1.77 mg %
Serum parameters GOT [2, 4]: 561.83±51.52 Units
Serum parameters GPT [2, 4]: 1008.04±63.66 Units
hepatoprotective activity percent, ALP [2]: (52.96) percent
hepatoprotective activity percent, Bilirubin [2]: (56.48) percent
hepatoprotective activity percent, GOT [2]: (54.92) percent
hepatoprotective activity percent, GPT [2]: (57.99) percent
hepatoprotective activity percent, Glutathione [2]: (42.35) percent
hepatoprotective activity percent, Lipid peroxidation [2]: (55.48) percent
hepatoprotective activity percent, Triglycerides [2]: (66.05) percent
Bile parameters % Increase (as compared to normal) Bile flow [3]: 08.23±1.71 ml%
Bile parameters % Increase (as compared to normal) Bile solids [3]: 13.40±1.53 mg%
